The subject of experiment [1] is MDA-MB-231. The experiment is described as follows: Cell cycle analysis (G2/M arrest, PI staining, flow cytometry), MDA-MB-231. The class given is cell-based. The note with it: Homo sapiens, MDA-MB-231, read-out: EC50 (G2/M arrest). As for the experimental part: Fig. 2 Antimitotic activity of WEHI-7326: cancer cell lines and effects on tubulin polymerization. a Dose-dependent antimitotic activity of WEHI-7326, nocodazol and taxol in tumor cell lines SW480 (colorectal) and MDA-MB-231 (breast). Data are presented as percentage of cells in G2/M after overnight incubation with increasing concentrations of inhibitors and PI staining followed by flow cytometry analysis. Mean average of 3 independent experiments ±SEM. b EC50 values (nM) for G2/M arrest on SW480 and MDA-MB-231 cell lines, given as mean average of 3 independent experiments ±SEM. c Western blot analysis of mitotic arrest in SW480 and MDA-MB-231 cells treated with EC50 concentrations of WEHI-7326 or Paclitaxel as marked by expression of phosho-S10 Histone H3 (p-HH3 S10), at different timepoints post treatment. Expression of β-actin provided as loading control. d Cell cycle analysis of LIM1899 cells 72 h post treatment with increasing concentrations of WEHI-7326 as measured by PI staining for DNA content followed by flow cytometry analysis. Sub-G1 represents apoptotic fractions and >4 N cell fractions of mitotic slippage. e Immunofluorescence confocal microscopy of tubulin polymerization in SW480 cells treated by various agents. […] Representative blot of 3 independent experiments. g Tubulin polymerization was assessed in vitro over time using a fluorescence-based tubulin polymerization assay (BK011P). […] Polymerization was measured by excitation at 360 nm and emission at 420 nm. […]
Cells in log growth were supplemented with fresh medium with either vehicle (control) or compound at the stated final concentrations. […] After 1 h incubation at room temperature in the dark, cells were analyzed on a FACScan (Becton and Dickinson) in CellQuest. The percentage of cells in each phase of the cell cycle was determined using ModFit software (Verity, http://www.vsh.com). Early and late apoptotic responses elicited by WEHI-7326 were assessed using Dead Cell Apoptosis Kit (ThermoFisher Scientific) with Annexin V FITC and PI following manufacturer’s instructions. […]
(In general: In flow cytometry, cells or beads pass a laser one at a time.)

The test system of experiment [2] is AH406 LUSC PDX. Description: LUSC PDX model AH406. The class given is in vivo, NOD-SCID-IL2Rγc–/– mice. The note with it: WEHI-7326 20 mg/kg i.v. biweekly, docetaxel 10 mg/kg i.p. once. As for the experimental part:
LUSC PDXs were generated as described in[25]. PDXs at passage 4 were defrosted and washed with PBS before counting. 200,000 to 500,000 cells were then injected in a 50:50 PBS:Matrigel mix into the flanks of NOD-SCID-IL2Rγc–/– male mice. Tumors were measured twice weekly with calipers and treatment started when tumors were between 70–120 mm^3. Mice were assigned to treatment groups based on average tumor volume per group. Mice were culled when tumors reached a volume of 600 mm^3.

Experiment [3] deals with 134036 HGSOC PDX. The experiment is described as follows: HGSOC PDX model 134036. The class given is in vivo, NSG mice. The note with it: 134036 C5 platinum refractory PDX; 20 mg/kg i.v. biweekly, 6 weeks. As for the experimental part:
(§1) Two to three mm ovarian tumor fragments were subcutaneously engrafted in the left flank of NSG mice and monitored by physical palpation for tumor growth and engraftment. Engrafted tumors were measured twice a week using digital Vernier calipers and maximum tumor diameter + perpendicular tumor length were digitally recorded into the Study Director software (v 3.0/4.0 StudyLog). Tumor volume was calculated automatically (tumor volume (mm^3) = 0.5236 x [larger diameter (mm) x smaller diameter (mm)^2]). Mice were randomized to treatment once their tumor volume reach 180–300 mm^3 and tumor measurements were performed twice a week up to 120 days or when the tumor volume reaches 700 mm^3.
(§2) Time to progressive disease (PD): Defined as the time (in days) from beginning of treatment to an increase in average tumor volume of >20% from the nadir (taken as the smallest average tumor volume recorded since treatment started or 200 mm^3 if nadir was <200 mm^3 as lesions smaller than this are difficult to measure with accuracy). Median time to harvest (TTH): Defined as the time (in days) from the beginning of treatment to day of harvest at 700 mm^3 and the median TTH was calculated and plotted using Kaplan-Meier curves. Based on ref. [27]. […]

In experiment [4] the test system is 134111 HGSOC PDX. Description: HGSOC post-chemo PDX model 134111. The class given is in vivo, NSG mice. The note with it: 134111 post-taxane, cisplatin-refractory PDX; 20 mg/kg i.v. twice a week, 6 weeks. As for the experimental part: as §1, §2

With `COc1ccc(CNc2nc(NCc3ccc(CN)cc3)nc(NN3CC(=O)NC3=O)n2)cc1` [WEHI-7326], the EC50 in experiment [1] worked out at 19 ± 2.2 nM. The Median survival in experiment [2] is 29 days. Moreover, the results for the Tumor response result in experiment [3] and in experiment [4] were “completely unresponsive” and “ineffective”, respectively.

(Values after article PMC7955127, “Preclinical small molecule WEHI-7326 overcomes drug resistance and elicits response in patient-derived xenograft models of human treatment-refractory tumors” (Cell Death & Disease, 2021).)
